Laboratory results from patent US10815540B2, “Treatments to eliminate HIV reservoirs and reduce viral load” (INSTITUT PASTEUR, priority 2017, dated 2020).
Read-outs that look alike come from different tables or passages of the source.

How the values were obtained:
[1] = tested on: CD32a^high CD4 T cells expressing HLA-E; conditions: spleen, 2 macaques treated with GA
From the text: FIG. 10A) Flow cytometry dot plots. CD32a^highHLA-E^+ CD4^+ T cells from AGM and macaques are shown in blue. […] MAC=macaque.

HLA-E on CD4 T cells = tested on: HLA-E on CD4 T cells
From the text: Follow-up of the percentage of CD4 T cells expressing MHC-E on their surface (FIG. 7D).

[2] = MS patients treated with GA for >10 years; cited from earlier work
pathogenic CD4 T cells = conditions: in vivo; cited from earlier work
[3] = tested on: HLA-E restricted (NKG2A/C+) NK cells; conditions: at around day 25, chronically SIV-infected GA treated macaques, versus 20%
SIVmac251 = conditions: two weeks treatment with GA, in less than 2 months, chronic SIV infection, no anti-retroviral therapy, pilot study with 2 animals
Method: Correlation between the plasma viral load and the classical CD8 T cells (FIG. 9B) and with the HLA-E restricted CD8 T cells (FIG. 9C) were evaluated. The Spearman coefficients (r) and p-values are indicated.

[4] = tested on: HLA-E restricted CD8 T cells; conditions: at around day 25, chronically SIV-infected GA treated macaques, versus 20%
[5] = tested on: HLA-E restricted CD8 T cells; conditions: at euthanasia, GA treated animal versus chronically SIV infected AGM

## L-glutamic acid polymer with L-alanine, L-lysine and L-tyrosine, acetate (salt) [GA]
[1]
  effect on latently infected cells (CD32a^high CD4 T): targets CD32a^high CD4 T cells expressing HLA-E
HLA-E on CD4 T cells; animal the most advanced in disease, no HLA-E before treatment, continued to increase after treatment cessation
  expression of HLA-E on CD4 T cells: increase HLA-E levels
HLA-E on CD4 T cells; animal with already very high expression before treatment
  expression of HLA-E on CD4 T cells: remained as high
[2]
  efficacy: long-term efficacy
Pathogenic CD4 T cells
  efficacy in mouse model of inflammatory bowel diseases: efficient
[3]
  CD107a on NK cells: 60%
SIVmac251
  decrease of viremia: ≤ 2 logs
[4]
  CD107a on HLA-E restricted CD8 T cells: 60%
[5]
  levels of HLA-E restricted CD8 T cells in the intestine: comparable levels or even higher to those in AGM
